What was measured:
Assay in all cases: combination Emax (second highest fraction inhibited in the dose matrix, 72 h); higher = more inhibition; extreme values may be limits of the assay
[1] = test system: HO-1-u-1 (Oral Cavity Carcinoma)
Procedure, shortened: (§1)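 Cell lines grown in DMEM/F12 or RPMI with 10% FBS were plated in 1536-well plates and held 24 hours at 37°C, 5% CO2 before 72 hours of exposure to two-drug dose matrices, with DMSO typically at 0.2%. CellTiter-Glo 2.0 luminescence gave viability, which was converted to inhibition. Vehicle wells were set to 0 and blank wells to 1. Combination Emax is the second-highest inhibition in the matrix, and Bliss excess is the observed combination effect minus the expected EA + EB − EA·EB, where EA and EB are the single-agent effects.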

[2] = test system: CAL-54 (Kidney Carcinoma)
Procedure, shortened: as §1

NCI-H2461 (Mesothelioma) = test system: NCI-H2461 (Mesothelioma)
Procedure, shortened: as §1

NCI-H28 (Mesothelioma) = test system: NCI-H28 (Mesothelioma)
Procedure, shortened: as §1

[3] = test system: K5 (Thyroid Gland Carcinoma)
Procedure, shortened: as §1

NCI-H2795 (Mesothelioma) = test system: NCI-H2795 (Mesothelioma)
Procedure, shortened: as §1

[4] = test system: SK-OV-3 (Ovarian Carcinoma)
Procedure, shortened: as §1

[5] = test system: CAPAN-1 (Pancreatic Carcinoma)
Procedure, shortened: as §1

[6] = test system: SW1271 (Small Cell Lung Carcinoma)
Procedure, shortened: as §1

[7] = test system: 8305C (Thyroid Gland Carcinoma)
Procedure, shortened: as §1

[8] = test system: SUP-T1 (T-Lymphoblastic Leukemia)
Procedure, shortened: as §1

NB14 (Neuroblastoma) = test system: NB14 (Neuroblastoma)
Procedure, shortened: as §1

[9] = test system: PCI-30 (Head and Neck Carcinoma)
Procedure, shortened: as §1

[10] = test system: LoVo (Colorectal Carcinoma)
Procedure, shortened: as §1

[11] = test system: MDA-MB-468 (Breast Carcinoma)
Procedure, shortened: as §1

[12] = test system: Hs-633T (Other Solid Carcinomas)
Procedure, shortened: as §1

[13] = test system: SU-DHL-6 (B-Cell Non-Hodgkin's Lymphoma)
Procedure, shortened: as §1

[14] = test system: RKO (Colorectal Carcinoma)
Procedure, shortened: as §1

[15] = test system: EN (Endometrial Carcinoma)
Procedure, shortened: as §1

[16] = test system: OC-314 (Ovarian Carcinoma)
Procedure, shortened: as §1

Compound | combination Emax [1] | combination Emax [2] | combination Emax (NCI-H2461 (Mesothelioma)) | combination Emax (NCI-H28 (Mesothelioma)) | combination Emax [3] | combination Emax (NCI-H2795 (Mesothelioma)) | combination Emax [4] | combination Emax [5] | combination Emax [6] | combination Emax [7] | combination Emax [8] | combination Emax (NB14 (Neuroblastoma)) | combination Emax [9] | combination Emax [10] | combination Emax [11] | combination Emax [12] | combination Emax [13] | combination Emax [14] | combination Emax [15] | combination Emax [16]
N#Cc1cnc(Nc2cc(NC[C@H]3CNCCO3)c(C(F)(F)F)cn2)cn1 [SRA737] + CCc1c2c(nc3ccc(O)cc13)-c1cc3c(c(=O)n1C2)COC(=O)[C@]3(O)CC [SN-38] (first compound max 10 µM, 7x7, partner max 0.3 µM) | 0.924 | 0.793 | 0.638 | 0.516 | 0.512 | 0.769 | 0.542 | 0.758 | 0.608 | 0.615 | 0.796 | 0.981 | 0.843 | 0.775 | 0.791 | 0.831 | 1 | 0.925 | 0.678 | 0.994
Cc1c2c(nn1C)CSCc1cc(n(C)n1)CSc1cc(c3ccccc3c1)OCCCc1c(C(=O)O)n(C)c3c-2c(Cl)ccc13 [AZD5991] + Nc1ccn([C@@H]2O[C@H](CO)[C@@H](O)C2(F)F)c(=O)n1 [Gemcitabine] (first compound max 1 µM, 7x7, partner max 0.3 µM) | 0.378 | 0.724 | 0.553 | 0.684 | 0.544 | 0.869 | 0.341 | 0.608 | 0.604 | 0.374 | 0.77 | 0.853 | 0.559 | 0.713 | 0.707 | 0.837 | 1 | 0.936 | 0.602 | 0.917
CN(CCO)CC[C@H](CSc1ccccc1)Nc1ccc(S(=O)(=O)NC(=O)c2ccc(N3CCC([C@@H](O)c4ccccc4-c4ccc(Cl)cc4)CC3)cc2)cc1S(=O)(=O)C(F)(F)F [AZD4320] + Nc1ccn([C@@H]2O[C@H](CO)[C@@H](O)C2(F)F)c(=O)n1 [Gemcitabine] (first compound max 1 µM, 7x7, partner max 0.3 µM) | 0.563 | 0.838 | 0.641 | 0.797 | 0.688 | 0.872 | 0.308 | 0.828 | 0.872 | 0.625 | 0.846 | 0.993 | 0.743 | 0.7 | 0.799 | 0.992 | 0.998 | 0.928 | 0.337 | 0.989
O=C(c1cc(Cc2n[nH]c(=O)c3ccccc23)ccc1F)N1CCN(C(=O)C2CC2)CC1 [Olaparib] + COc1nnc2ccc(N3CCC(c4ccc(OCCN5CCN(C)C(=O)[C@H]5C)cc4)CC3)nn12 [AZD5153] (first compound max 10 µM, 7x7, partner max 1 µM) | 0.454 | 0.737 | 0.42 | 0.422 | 0.611 | 0.651 | 0.516 | 0.418 | 0.573 | 0.495 | 0.792 | 0.574 | 0.251 | 0.436 | 0.503 | 0.612 | 0.917 | 0.672 | 0.347 | 0.798
O=C(c1cc(Cc2n[nH]c(=O)c3ccccc23)ccc1F)N1CCN(C(=O)C2CC2)CC1 [Olaparib] + CN(CC[C@H](CSC1=CC=CC=C1)NC2=C(C=C(C=C2)S(=O)(=O)NC(=O)C3=CC=C(C=C3)N4CCC(CC4)[C@H](C5=CC=CC=C5C6=CC=C(C=C6)Cl)O)S(=O)(=O)C(F)(F)F)CCO [AZD4320] (first compound max 10 µM, 7x7, partner max 1 µM) | 0.29 | 0.236 | 0.17 | 0.168 | 0.199 | 0.451 | 0.219 | 0.663 | 0.21 | 0.385 | 0.602 | 0.882 | 0.188 | 0.187 | 0.684 | 0.2 | 0.919 | 0.11 | 0.297 | 0.262
Cc1cc2ncnn2cc1Nc1ncc2c(n1)n(C1CCOCC1)c(=O)n2C [AZD7648] + COc1cc([C@@H]2c3cc4c(cc3[C@@H](O[C@@H]3O[C@@H]5CO[C@@H](C)O[C@H]5[C@H](O)[C@H]3O)[C@H]3COC(=O)[C@H]23)OCO4)cc(OC)c1O [Etoposide] (first compound max 10 µM, 7x7, partner max 10 µM) | 0.866 | 0.731 | 0.553 | 0.425 | 0.64 | 0.686 | 0.399 | 0.492 | 0.475 | 0.465 | 0.85 | 0.912 | 0.553 | 0.704 | 0.657 | 0.842 | 0.991 | 0.829 | 0.481 | 0.978
O=C(c1cc(Cc2n[nH]c(=O)c3ccccc23)ccc1F)N1CCN(C(=O)C2CC2)CC1 [Olaparib] + Cc1c2c(nn1C)CSCc1cc(n(C)n1)CSc1cc(c3ccccc3c1)OCCCc1c(C(=O)O)n(C)c3c-2c(Cl)ccc13 [AZD5991] (first compound max 10 µM, 7x7, partner max 1 µM) | 0.239 | 0.208 | 0.127 | 0.118 | 0.0887 | 0.748 | 0.174 | 0.366 | 0.131 | 0.311 | 0.477 | 0.595 | 0.103 | 0.162 | 0.42 | 0.184 | 1 | 0.137 | 0.476 | 0.191
C[C@@H]1COCCN1c1cc(C2([S@](C)(=N)=O)CC2)nc(-c2ccnc3[nH]ccc23)n1 [AZD6738] + C1CC(C1)(C(=O)[O-])C(=O)[O-].N.N.[Pt+2] [Carboplatin] (first compound max 10 µM, 7x7, partner max 10 µM) | 0.75 | 0.695 | 0.646 | 0.479 | 0.517 | 0.573 | 0.36 | 0.384 | 0.356 | 0.501 | 0.719 | 0.952 | 0.45 | 0.8 | 0.583 | 0.836 | 0.285 | 0.932 | 0.537 | 0.814
N#Cc1cnc(Nc2cc(NC[C@H]3CNCCO3)c(C(F)(F)F)cn2)cn1 [SRA737] + C=CCn1c(=O)c2cnc(Nc3ccc(N4CCN(C)CC4)cc3)nc2n1-c1cccc(C(C)(C)O)n1 [AZD1775] (first compound max 10 µM, partner max 1 µM) | 0.924 | 0.749 | 0.709 | 0.617 | 0.395 | 0.707 | 0.572 | 0.507 | 0.488 | 0.553 | 0.766 | 0.997 | 0.687 | 0.852 | 0.642 | 0.79 | 0.933 | 0.957 | 0.696 | 0.928
Cc1c2c(nn1C)CSCc1cc(n(C)n1)CSc1cc(c3ccccc3c1)OCCCc1c(C(=O)O)n(C)c3c-2c(Cl)ccc13 [AZD5991] + CS(=O)(=O)CCNCc1ccc(-c2ccc3ncnc(Nc4ccc(OCc5cccc(F)c5)c(Cl)c4)c3c2)o1 [Lapatinib] (first compound max 1 µM, 7x7, partner max 10 µM) | 0.713 | 0.529 | 0.332 | 0.337 | 0.237 | 0.877 | 0.347 | 0.261 | 0.424 | 0.346 | 0.488 | 0.936 | 0.257 | 0.491 | 0.851 | 0.206 | 1 | 0.455 | 0.519 | 0.506
C[C@@H](Oc1cc(-c2cnn(C3CCNCC3)c2)cnc1N)c1c(Cl)ccc(F)c1Cl [Crizotinib] + Cn1cnc2c(F)c(Nc3ccc(Br)cc3Cl)c(C(=O)NOCCO)cc21 [Selumetinib] (first compound max 10 µM, 7x7, partner max 10 µM) | 0.639 | 0.565 | 0.56 | 0.438 | 0.682 | 0.918 | 0.249 | 0.571 | 0.896 | 0.801 | 0.823 | 0.966 | 0.238 | 0.557 | 0.673 | 0.896 | 1 | 0.982 | 0.401 | 0.494
C[C@@H](Nc1cc(F)cc(F)c1)c1cc(C(=O)N(C)C)cc2c(=O)cc(N3CCOCC3)oc12 [AZD8186] + C1CN(CCC1(C(=O)N[C@@H](CCO)C2=CC=C(C=C2)Cl)N)C3=NC=NC4=C3C=CN4 [AZD5363] (first compound max 10 µM, 7x7, partner max 10 µM) | 0.752 | 0.683 | 0.457 | 0.359 | 0.466 | 0.409 | 0.426 | 0.204 | 0.289 | 0.369 | 0.553 | 0.213 | 0.313 | 0.644 | 0.571 | 0.297 | 1 | 0.433 | 0.536 | 0.562
